According to ChEMBL document CHEMBL3779775, “Synthesis, anti-inflammatory, analgesic, COX-1/2 inhibition activities and molecular docking study of pyrazoline derivatives” (Bioorg Med Chem, 2016):
Calls of active or inactive are those of the source. The calls are words filed in the database; no cut-off is given here.

What was measured:
[1] = test system: Mus musculus; test: Analgesic activity in albino Swiss mouse assessed as decrease in licking or blowing time at 200 mg/kg, ip administered as single dose measured after 1 hr by hot plate test; format: functional, organism-based
[2] = test system: Rattus norvegicus; test: Antiinflammatory activity in carrageenan induced Sprague-Dawley rat paw oedema model assessed as reduction of paw volume at 200 mg/kg, ip measured after 2 hrs by plethysmometer method; format: functional, organism-based
[3] = test system: Mus musculus; test: Analgesic activity in ip dosed albino Swiss mouse assessed as decrease in licking or blowing time administered as single dose measured after 1 hr by hot plate test; format: functional
[4] = test system: Rattus norvegicus; test: Ulcerogenicity in ip dosed fasted Sprague-Dawley rat after 24 hrs by hand lens; format: toxicity, organism-based; conditions: in vivo
[5] = test system: Rattus norvegicus; test: Antiinflammatory activity in ip dosed carrageenan induced Sprague-Dawley rat paw oedema model assessed as reduction of paw volume measured after 2 hrs by plethysmometer method; format: functional
[6] = target: T1, Prostaglandin G/H synthase 1 (Ovis aries, UniProt P05979); test: Inhibition of ovine COX-1 using arachidonic acid as substrate assessed as production of […] preincubated for 5 mins followed by addition of substrate measured after 2 mins by EIA
T1 sequence (P05979 whole entry): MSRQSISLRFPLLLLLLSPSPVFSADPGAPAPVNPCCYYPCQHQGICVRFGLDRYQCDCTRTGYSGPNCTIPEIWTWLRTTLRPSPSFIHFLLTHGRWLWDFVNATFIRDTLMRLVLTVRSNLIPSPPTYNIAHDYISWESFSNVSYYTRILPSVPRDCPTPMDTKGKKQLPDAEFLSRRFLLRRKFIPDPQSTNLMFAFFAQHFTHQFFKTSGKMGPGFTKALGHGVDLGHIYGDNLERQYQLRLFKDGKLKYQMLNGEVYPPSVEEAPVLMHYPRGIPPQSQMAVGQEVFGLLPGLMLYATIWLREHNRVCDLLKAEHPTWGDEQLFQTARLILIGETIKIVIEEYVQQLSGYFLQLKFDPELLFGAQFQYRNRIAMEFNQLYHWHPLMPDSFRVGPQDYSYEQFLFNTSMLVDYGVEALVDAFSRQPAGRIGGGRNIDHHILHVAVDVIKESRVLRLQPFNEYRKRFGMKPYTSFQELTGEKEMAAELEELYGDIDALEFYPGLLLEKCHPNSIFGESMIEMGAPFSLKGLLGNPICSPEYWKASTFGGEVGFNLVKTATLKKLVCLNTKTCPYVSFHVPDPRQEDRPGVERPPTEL

Row | Structure (SMILES) | Activity [1] | Activity [2] | ED50 [3] [mg/kg] | Activity [4] [mg/kg] | ED50 [5] [mg/kg] | IC50 [6] [µM]
1 | Fc1ccc(C2=NNC(c3ccc(Cl)cc3)C2)cc1 (stereo not drawn) | inactive | inactive | – | – | – | –
2 | O=C(CO[N+](=O)[O-])N1N=C(c2ccc(Br)cc2)CC1c1ccc([N+](=O)[O-])cc1 (stereo not drawn) | inactive | inactive | – | – | – | –
3 | O=C(CCl)Nc1ccc(C2=NN(C(=O)CCl)C(c3ccc([N+](=O)[O-])cc3)C2)cc1 (stereo not drawn) | – | – | 81.9 | > 200 | 90.3 | –
4 | O=C(CO[N+](=O)[O-])N1N=C(c2ccc(F)cc2)CC1c1ccc([N+](=O)[O-])cc1 (stereo not drawn) | – | – | 55.1 | > 200 | 65.3 | > 100
5 | O=C(CCl)N1N=C(c2ccccc2)CC1c1ccc([N+](=O)[O-])cc1 (stereo not drawn) | inactive | inactive | – | – | – | –
6 | Nc1ccc(C2=NN(C(=O)CCl)C(c3ccc([N+](=O)[O-])cc3)C2)cc1 (stereo not drawn) | inactive | inactive | – | – | – | –
7 | CC(=O)c1ccc(NCC(=O)N2N=C(c3ccccc3)CC2c2ccc([N+](=O)[O-])cc2)cc1 (stereo not drawn) | – | – | 38.6 | > 200 | 59.4 | > 100
8 | CC(=O)c1ccc(NCC(=O)N2N=C(c3ccc(Br)cc3)CC2c2ccc([N+](=O)[O-])cc2)cc1 (stereo not drawn) | – | – | 87.8 | > 200 | 95.9 | –
9 | Nc1ccc(C2=NNC(c3ccc([N+](=O)[O-])cc3)C2)cc1 (stereo not drawn) | inactive | inactive | – | – | – | –
10 | Cc1ccc(-c2cc(C(F)(F)F)nn2-c2ccc(S(N)(=O)=O)cc2)cc1 [CELECOXIB] | – | – | 72 | > 200 | 89 | –
11 | CC(=O)Nc1ccc(C2=NN(c3ccccc3)C(c3ccc(Cl)cc3)C2)cc1 (stereo not drawn) | – | – | 49.6 | > 200 | 74.2 | > 100
12 | O=C(CCl)N1N=C(c2ccc(Br)cc2)CC1c1ccc([N+](=O)[O-])cc1 (stereo not drawn) | inactive | inactive | – | – | – | –
13 | CC(=O)Nc1ccc(C2=NN(C(C)=O)C(c3ccc([N+](=O)[O-])cc3)C2)cc1 (stereo not drawn) | – | – | 48.1 | > 200 | – | > 100
14 | O=C(CO[N+](=O)[O-])N1N=C(c2ccc(Br)cc2)CC1c1ccc(Cl)cc1 (stereo not drawn) | inactive | inactive | – | – | – | –
15 | O=C(CO[N+](=O)[O-])N1N=C(c2ccccc2)CC1c1ccc([N+](=O)[O-])cc1 (stereo not drawn) | inactive | inactive | – | – | – | –
16 | O=[N+]([O-])c1ccc(C2CC(c3ccc(F)cc3)=NN2)cc1 (stereo not drawn) | – | – | 59.1 | > 200 | 89.7 | –
17 | CC(=O)c1ccc(NCC(=O)N2N=C(c3ccc(F)cc3)CC2c2ccc([N+](=O)[O-])cc2)cc1 (stereo not drawn) | – | – | 49.4 | > 200 | 73.2 | > 100
18 | O=C(CCl)N1N=C(c2ccc(F)cc2)CC1c1ccc([N+](=O)[O-])cc1 (stereo not drawn) | – | – | 68.2 | > 200 | 98.4 | –
19 | CC(=O)Nc1ccc(C2=NN(c3ccccc3)C(c3ccc([N+](=O)[O-])cc3)C2)cc1 (stereo not drawn) | – | – | 75.2 | > 200 | 91.3 | –
